The values below come from patent US20100137449A1, “SUBSTITUTED 1,3-CYCLOPENTADIONE MULTI-TARGET PROTEIN KINASE MODULATORS OF CANCER, ANGIOGENESIS AND THE INFLAMMATORY PATHWAYS ASSOCIATED THEREWITH” (METAPROTEOMICS, LLC, priority 2007, published 2010).

One experiment concerns the target T1, Bmx(h) (Homo sapiens, UniProt P51813).
T1 sequence (P51813 1-675): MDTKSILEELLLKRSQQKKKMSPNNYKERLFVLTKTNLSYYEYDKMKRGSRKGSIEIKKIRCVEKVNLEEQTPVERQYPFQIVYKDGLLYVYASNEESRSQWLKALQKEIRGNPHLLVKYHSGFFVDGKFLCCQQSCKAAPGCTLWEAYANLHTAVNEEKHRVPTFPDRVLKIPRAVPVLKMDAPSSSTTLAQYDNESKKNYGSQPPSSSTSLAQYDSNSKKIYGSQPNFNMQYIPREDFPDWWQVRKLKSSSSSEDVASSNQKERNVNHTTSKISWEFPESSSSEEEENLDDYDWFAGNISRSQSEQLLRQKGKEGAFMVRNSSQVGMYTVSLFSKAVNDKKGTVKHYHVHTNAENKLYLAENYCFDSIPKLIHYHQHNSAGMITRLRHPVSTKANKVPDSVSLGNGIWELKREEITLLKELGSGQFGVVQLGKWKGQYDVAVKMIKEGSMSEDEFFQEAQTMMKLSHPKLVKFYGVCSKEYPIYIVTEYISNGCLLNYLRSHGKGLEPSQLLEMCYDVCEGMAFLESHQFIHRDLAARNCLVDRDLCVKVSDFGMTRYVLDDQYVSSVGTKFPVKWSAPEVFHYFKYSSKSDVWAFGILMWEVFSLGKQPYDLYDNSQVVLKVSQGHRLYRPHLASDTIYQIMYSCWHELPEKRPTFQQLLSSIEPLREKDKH
The experiment is described as follows: KinaseProfiler Assay.

In a further experiment the test system is endothelial cells. Put plainly: Proliferation assay (DNA content, Hoechst 33258). The experiment is classed as cell-based. How it is done:
Methodology—A day before the assay, 1×10^4 endothelial cells were plated in quadruplicate in 24-well plates ad grown in adequate complete medium over night. Cells were then treated with 10 ug/ml and 20 ug/ml of each drug. […] The dilutions and concentrations of the dyes were chosen to yield appropriate dye/base pair ratios that are crucial to obtain maximal linearity and sensitivity of the DNA quantification assays. After an incubation time of ˜10 min, fluorescence intensities were measure. All investigations were generally performed at room temperature with the solutions protected from light. Spectrofluorimetric measurements were performed with Spectramax Gemini XS. […] Florescence values were converted into DNA concentrations according to the fluorescence intensities of DNA standard calibration curves.

The next experiment deals with HUVEC. The experiment is described as follows: Migration wound healing assay. The experiment is classed as cell-based.
A further experiment relates to rat aortic rings. Put plainly: Ex vivo rat aortic ring angiogenesis assay. The experiment is classed as cell-based. How it is done: These ex vivo organo-typic cultures were treated with single compound. […] Neovascularization was evaluated as a marker of the observed angiogenic response.
Statistical analysis—Analysis of variance was performed on the six observations per treatment for the controls and two test concentrations after normalizing to the dimethyl sulfoxide control. The probability of a type I error was set at the nominal five percent level.

Marks after values point to notes of the source that are not given here.

Experimental for HUVEC: Methodology—A day before the assay, 5×10^5 endothelial cells were plated in E-well plates and grown in adequate complete medium over night. Confluent HUVEC monolayers were then scraped to create a wound. Cells were the treated with 20 ug/ml of each drug. After wounding and 6 hours later, two different fields of each wound were photographed with a phase-contrast microscope. Measurements of the width of each wound were made in each experimental condition. At the start of the experiment, the wound size was measured and scored as 100%. After 6 hours, the width of the remaining wound was measured and average percent wound closure was calculated.

For `CCC(C)C(=O)C1=C(O)[C@@](O)(C(=O)CCC(C)C)[C@H](CCC(C)C)C1=O` (stereo partly shown) [TH4, tetrahydro-isoadhumulone], the “inhibition of BMX kinase” value against Bmx(h) (100 μg/mL) is recorded as “inhibit it almost completely”.

Regarding `CC(C)CCC(=O)[C@]1(O)C(O)=C(C(=O)C(C)C)C(=O)[C@H]1CCC(C)C` [TH1, tetrahydro-isocohumulone], the “activity in inhibiting BMX in comparison with TH4 and TH5” value on Bmx(h) (100 μg/ml) is “about 50%”.

On to `COc1cc(O)c(CC=C(C)C)c(O)c1C(=O)/C=C/c1ccc(O)cc1` [Xanthohumol, xanthohumol], for which the “Relative DNA Content vs Dimethyl Sulfoxide Controls” value in the experiment with endothelial cells (24 Hours, 10 μg/mL) is 95; in the experiment on endothelial cells (24 Hours, 20 μg/mL), 66**; in the experiment with endothelial cells (48 Hours, 10 μg/mL), 82**; in the experiment on endothelial cells (48 Hours, 20 μg/mL), 57**; in the experiment on endothelial cells (72 Hours, 10 μg/mL) it was 71**; in the experiment with endothelial cells (72 Hours, 20 μg/mL), 42**. For the same compound, the “Summary of Effects: Proliferation” value in the experiment with endothelial cells (summary table) is given as −60%. The “Relative Percent Wound Closure at Six Hours vs Dimethyl Sulfoxide Controls” value in the experiment on HUVEC (20 μg/mL, HUVEC, six hours) was 45** Percent. For the same compound, the “wound closure (in words)” value with HUVEC (20 ug/ml, 6 hours) is given as “most active of the test materials”. In the experiment on HUVEC (summary table), the “Summary of Effects: Migration” value was −60%. The “Relative Number of Vessels vs Dimethyl Sulfoxide Controls” value in the experiment with rat aortic rings (5.0 μg/mL) was 95.9; in the experiment on rat aortic rings (20 μg/mL) it was 100. Moreover, the “vessel growth (in words)” value in the experiment with rat aortic rings (20 and 5 μg/mL) is recorded as “not active”. The “Summary of Effects: Aortic Angiogenesis” value with rat aortic rings (summary table) is listed as “Not Active”.
